Consider five compounds from ChEMBL document CHEMBL4665697, “Synthesis of the Major Mammalian Metabolites of THCV” (J Nat Prod, 2020).

One assay deals with Cannabinoid receptor 1 (Homo sapiens, UniProt P21554). Briefly: Displacement of [3H]-CP-55,940 from recombinant human CB1R expressed in HEK293 cell membranes after 90 mins. Also noted: species or system Cell membrane. (Displacement assays read how much labelled ligand stays bound in the presence of the test substance.)
The target in another assay is Cannabinoid receptor 2 (Homo sapiens, UniProt P34972). Briefly: Displacement of [3H]-CP-55,940 from recombinant human CB2R expressed in HEK293 cell membranes after 90 mins. Details: species or system Cell membrane.
Chain of Cannabinoid receptor 2 (P34972 whole entry): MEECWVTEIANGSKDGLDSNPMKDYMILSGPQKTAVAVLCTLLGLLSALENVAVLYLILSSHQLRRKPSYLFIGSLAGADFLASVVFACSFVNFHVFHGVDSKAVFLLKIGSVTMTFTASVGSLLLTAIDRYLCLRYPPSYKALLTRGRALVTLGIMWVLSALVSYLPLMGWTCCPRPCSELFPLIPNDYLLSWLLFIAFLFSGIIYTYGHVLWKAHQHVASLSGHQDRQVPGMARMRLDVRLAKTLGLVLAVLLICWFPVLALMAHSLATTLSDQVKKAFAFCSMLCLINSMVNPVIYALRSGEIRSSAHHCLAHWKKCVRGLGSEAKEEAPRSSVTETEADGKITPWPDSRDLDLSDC

Chain of Cannabinoid receptor 1 (P21554 whole entry): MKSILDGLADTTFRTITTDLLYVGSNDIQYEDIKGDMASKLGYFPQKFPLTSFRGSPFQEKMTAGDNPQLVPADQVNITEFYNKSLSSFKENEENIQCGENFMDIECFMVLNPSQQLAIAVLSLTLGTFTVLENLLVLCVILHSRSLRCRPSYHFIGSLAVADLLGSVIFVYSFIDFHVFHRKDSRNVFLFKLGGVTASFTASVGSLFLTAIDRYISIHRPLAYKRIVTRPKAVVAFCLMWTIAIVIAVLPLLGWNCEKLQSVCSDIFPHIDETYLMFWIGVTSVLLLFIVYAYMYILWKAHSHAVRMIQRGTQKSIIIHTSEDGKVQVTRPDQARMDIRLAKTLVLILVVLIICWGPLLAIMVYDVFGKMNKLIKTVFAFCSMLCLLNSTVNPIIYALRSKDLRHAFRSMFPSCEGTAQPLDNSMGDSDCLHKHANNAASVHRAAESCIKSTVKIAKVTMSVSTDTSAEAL

As to `CCCc1cc(O)c2c(c1)OC(C)(C)[C@@H]1CCC(CO)=C[C@@H]21`, on Cannabinoid receptor 1, the IC50 (usually the concentration needed to halve the response being measured) is 22.7 nM; the Ki (in general, the dissociation constant of the complex between target and ligand, obtained from inhibition or displacement) worked out at 2.5 nM. Also, on Cannabinoid receptor 2, the IC50 came to 29.8 nM and the Ki came to 4.7 nM.
The corresponding values for `CCCc1cc(O)c2c(c1)OC(C)(C)[C@@H]1CCC(C(=O)O)=C[C@@H]21` are 1680 nM, 187 nM, 3720 nM and 590 nM.
As to `CCCc1cc(O)c2c(c1)OC(C)(C)[C@@H]1C[C@H](O)C(C)=C[C@@H]21`, the IC50 is 230 nM at Cannabinoid receptor 1 and 808 nM on Cannabinoid receptor 2. Moreover, the Ki at Cannabinoid receptor 1 turned out to be 25.6 nM; on Cannabinoid receptor 2, 128 nM.
For the compound `CCCc1cc(O)c2c(c1)OC(C)(C)[C@@H]1C[C@@H](O)C(C)=C[C@@H]21`, at Cannabinoid receptor 1, the IC50 is more than 10000 nM and the Ki was more than 10000 nM. At Cannabinoid receptor 2, the IC50 was more than 10000 nM and the Ki was more than 10000 nM.
As for `CCCc1cc(O)c2c(c1)OC(C)(C)[C@@H]1CCC(C)=C[C@@H]21` [TETRAHYDROCANNABIVARIN], at Cannabinoid receptor 1, the IC50 is 13.1 nM and the Ki turned out to be 1.5 nM. Further, at Cannabinoid receptor 2, the IC50 came out at 17.6 nM and the Ki came out at 2.8 nM.
